Consider 3 compounds from ChEMBL document CHEMBL1140943, “Third-generation immucillins: syntheses and bioactivities of acyclic immucillin inhibitors of human purine nucleoside phosphorylase” (J Med Chem, 2009).

This test concerns the target T1, Purine nucleoside phosphorylase (Homo sapiens, UniProt P00491).
T1 sequence (P00491 whole entry): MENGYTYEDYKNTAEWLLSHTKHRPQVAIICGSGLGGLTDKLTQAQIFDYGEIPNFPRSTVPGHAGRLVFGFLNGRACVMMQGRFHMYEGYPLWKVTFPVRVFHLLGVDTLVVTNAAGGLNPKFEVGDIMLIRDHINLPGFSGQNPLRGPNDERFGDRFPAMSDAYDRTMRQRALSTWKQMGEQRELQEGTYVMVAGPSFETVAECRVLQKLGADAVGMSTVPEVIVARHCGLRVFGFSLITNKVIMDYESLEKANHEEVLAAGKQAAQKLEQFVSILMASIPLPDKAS
Description: Inhibition of human PNP by xanthine-oxidase coupled assay

The term Ki denotes the equilibrium dissociation constant of an inhibitor or competing ligand from its target. `Nc1nc2c(CNC(CO)CO)c[nH]c2c(=O)[nH]1` gave a Ki of 2.1 pM.

In turn, `Nc1nc2c(CN[C@H](CO)[C@H](O)CO)c[nH]c2c(=O)[nH]1` returned a Ki of 3.4 pM.

In turn, `O=c1[nH]cnc2c(CN3C[C@H](CO)[C@@H](O)C3)c[nH]c12` [ULODESINE] showed a Ki of 8.5 pM.
